Laboratory results: patent US9708314B2, “Heterocyclic amide compound” (NISSAN CHEMICAL INDUSTRIES, LTD., priority 2013, dated 2017)

Legend:
Format in all cases: in vivo
[1] = system: directly sowed Oryza sativa; assay: Test Example 3: effect on crop by application to foliage (Wagner pot, water depth 0.1-0.5 cm); conditions: Nineteenth Table; application to foliage; application herbicide amount 320 g/ha
From the text: 5 Herbicidal ratio of 90% or more (almost completely withered) 4 Herbicidal ratio of 70% or more and less than 90% 3 Herbicidal ratio of 40% or more and less than 70% 2 Herbicidal ratio of 20% or more and less than 40% 1 Herbicidal ratio of 5% or more and less than 20% 0 Herbicidal ratio of 5% or less (almost no effect) [Test Example 3] Herbicidal Effect Test by Application to Foliage After alluvial soil was placed into 1/10000 are of Wagner pot, water was poured and mixed to form a condition having a water depth of 0.1 cm to 0.5 cm. Seeds of Echinochloa crus-galli var. crus-galli, Leptochloa chinensis, Cyperus difformis, and Oryza sativa were sowed and the pot was placed in the greenhouse of 25° C. to 30° C. to grow the plants. After the plants were grown for 14 days, the emulsion agent containing the compound of the present invention prepared in accordance with Formulation Example 2 was diluted with water so as to be a predetermined herbicide amount and the diluted compound was uniformly applied to a stem and leaf part with a small-size spray. Three weeks after the herbicide application, effects on each plant were investigated in accordance with the criteria of Test Example 1. A: Echinochloa oryzicola Vasing., B: Scirpus juncoides, C: Monochoria vaginalis, D: Leptochloa chinensis, E: Cyperus difformis, F: Digitaria ciliaris, G: Setaria viridis, H: Echinochloa crus-galli var. crus-galli, I: Avena fatua, J: Alopecurus myosuroides, K: Lolium multiflorum Lam., L: Apera spica-venti., M: Abutilon theophrasti, N: Amaranthus retroflexus, O: Chenopodium album, P: Stellaria media, Q: Galium spurium, R: Veronica persica, a: transplanted Oryza sativa, b: directly sowed Oryza sativa, c: Zea mays, d: Glycine max, e: Triticum aestivum, f: Beta vulgaris ssp. vulgaris, and g: Brassica campestris L. The application herbicide amount (g/ha) means an amount that a concentration is adjusted so that, when an application amount is converted into per hectare (1 ha), the herbicide is applied by the number of grams (g) of the described value.

[2] = system: Veronica persica; assay: Test Example 4: herbicidal effect by application to foliage (diluvial soil, plastic box); conditions: application to foliage
From the text: (§1) 5 Herbicidal ratio of 90% or more (almost completely withered) 4 Herbicidal ratio of 70% or more and less than 90% 3 Herbicidal ratio of 40% or more and less than 70% 2 Herbicidal ratio of 20% or more and less than 40% 1 Herbicidal ratio of 5% or more and less than 20% 0 Herbicidal ratio of 5% or less (almost no effect) [Test Example 4] Herbicidal Effect Test by Application to Foliage Sterilized diluvial soil was placed in a plastic box having a length of 21 cm, a width of 13 cm, and a depth of 7 cm. Each of the seeds of Digitaria ciliaris, Setaria viridis, Echinochloa crus-galli var. crus-galli, Avena fatua, Alopecurus myosuroides, Lolium multiflorum Lam., Apera spica-venti., Abutilon theophrasti, Amaranthus retroflexus, Chenopodium album, Stellaria media, Galium spurium, Veronica persica, Zea mays, Glycine max, Oryza sativa, Triticum aestivum, Beta vulgaris ssp. vulgaris, and Brassica campestris L. was sowed in a spot-like manner and was covered with the soil of about 1.5 cm thick. Thereafter, the plants were grown in the greenhouse of 25° C. to 30° C. After the plants were grown for 14 days, the emulsion agent containing the compound of the present invention prepared in accordance with Formulation Example 2 was diluted with water so as to be a predetermined herbicide amount and the diluted compound was uniformly applied to a stem and leaf part with a small-size spray. Three weeks after the herbicide application, effects on each plant were investigated in accordance with the criteria of Test Example 1. A: Echinochloa oryzicola Vasing., B: Scirpus juncoides, C: Monochoria vaginalis, D: Leptochloa chinensis, E: Cyperus difformis, F: Digitaria ciliaris, G: Setaria viridis, H: Echinochloa crus-galli var. crus-galli, I: Avena fatua, J: Alopecurus myosuroides, K: Lolium multiflorum Lam., L: Apera spica-venti., M: Abutilon theophrasti, N: Amaranthus retroflexus, O: Chenopodium album, P: Stellaria media, Q: Galium spurium, R: Veronica persica, a: transplanted Oryza sativa, b: directly sowed Oryza sativa, c: Zea mays, d: Glycine max, e: Triticum aestivum, f: Beta vulgaris ssp. vulgaris, and g: Brassica campestris L. The application herbicide amount (g/ha) means an amount that a concentration is adjusted so that, when an application amount is converted into per hectare (1 ha), the herbicide is applied by the number of grams (g) of the described value.

[3] = system: Lolium multiflorum Lam.; assay: as above; conditions: application to foliage
From the text: as §1

[4] = system: Abutilon theophrasti; assay: as above; conditions: application to foliage
From the text: as §1

[5] = system: Avena fatua; assay: as above; conditions: application to foliage
From the text: as §1

[6] = system: Digitaria ciliaris; assay: as above; conditions: application to foliage
From the text: as §1

[7] = system: Alopecurus myosuroides; assay: as above; conditions: application to foliage
From the text: as §1

[8] = system: Chenopodium album; assay: as above; conditions: application to foliage
From the text: as §1

[9] = system: Setaria viridis; assay: as above; conditions: application to foliage
From the text: as §1

[10] = system: Stellaria media; assay: as above; conditions: application to foliage
From the text: as §1

[11] = system: Amaranthus retroflexus; assay: as above; conditions: application to foliage
From the text: as §1

[12] = system: Apera spica-venti.; assay: as above; conditions: application to foliage
From the text: as §1

[13] = system: Galium spurium; assay: as above; conditions: application to foliage
From the text: as §1

[14] = system: Echinochloa crus-galli var. crus-galli; assay: as above; conditions: application to foliage
From the text: as §1

[15] = system: Brassica campestris L.; assay: Test Example 4: effect on crop by application to foliage (diluvial soil, plastic box); conditions: application to foliage
Outline: (§2)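 Emulsion-formulated compound, diluted to a predetermined g/ha dose, applied by small sprayer to leaves and stems of 14-day-old seedlings grown in sterilized diluvial soil. Effect rated on 0–5 herbicidal-ratio scale three weeks on.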

[16] = system: Zea mays; assay: as above; conditions: application to foliage
Outline: as §2

[17] = system: Beta vulgaris ssp. vulgaris; assay: as above; conditions: application to foliage
Outline: as §2

[18] = system: Triticum aestivum; assay: as above; conditions: application to foliage
Outline: as §2

[19] = system: Glycine max; assay: as above; conditions: application to foliage
Outline: as §2

[20] = system: directly sowed Oryza sativa; assay: as above; conditions: application to foliage
Outline: as §2

[21] = system: Leptochloa chinensis; assay: Test Example 3: herbicidal effect by application to foliage (Wagner pot, water depth 0.1-0.5 cm); conditions: Nineteenth Table; application to foliage; application herbicide amount 320 g/ha
Outline: (§3)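 Seeds were sown in alluvial soil in Wagner pots, grown for 14 days at 25–30 °C, then sprayed uniformly on foliage with the emulsified compound diluted to a given rate per hectare. Injury was graded three weeks after treatment from 0 (≤5%) to 5 (≥90%).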

[22] = system: Echinochloa crus-galli var. crus-galli; assay: as above; conditions: Nineteenth Table; application to foliage; application herbicide amount 320 g/ha
Outline: as §3

[23] = application herbicide amount 320 g/ha

Cc1nonc1NC(=O)c1ccc(C(F)(F)F)n2c(SCC(C)C)nnc12 [3-002]
b (effect on crop grade) [1]: 0 (Herbicidal ratio of 5% or less (almost no effect))
herbicidal effect, R (Veronica persica) ([2]; 320 g/ha): 0 (Herbicidal ratio of 5% or less (almost no effect))
herbicidal effect, K (Lolium multiflorum Lam.) ([3]; 320 g/ha): 0 (Herbicidal ratio of 5% or less (almost no effect))
herbicidal effect, M (Abutilon theophrasti) ([4]; 320 g/ha): 1 (Herbicidal ratio of 5% or more and less than 20%)
herbicidal effect, I (Avena fatua) ([5]; 320 g/ha): 0 (Herbicidal ratio of 5% or less (almost no effect))
herbicidal effect, F (Digitaria ciliaris) ([6]; 320 g/ha): 0 (Herbicidal ratio of 5% or less (almost no effect))
herbicidal effect, J (Alopecurus myosuroides) ([7]; 320 g/ha): 0 (Herbicidal ratio of 5% or less (almost no effect))
herbicidal effect, O (Chenopodium album) ([8]; 320 g/ha): 4 (Herbicidal ratio of 70% or more and less than 90%)
herbicidal effect, G (Setaria viridis) ([9]; 320 g/ha): 0 (Herbicidal ratio of 5% or less (almost no effect))
herbicidal effect, P (Stellaria media) ([10]; 320 g/ha): 1 (Herbicidal ratio of 5% or more and less than 20%)
herbicidal effect, N (Amaranthus retroflexus) ([11]; 320 g/ha): 3 (Herbicidal ratio of 40% or more and less than 70%)
herbicidal effect, L (Apera spica-venti.) ([12]; 320 g/ha): 0 (Herbicidal ratio of 5% or less (almost no effect))
herbicidal effect, Q (Galium spurium) ([13]; 320 g/ha): 0 (Herbicidal ratio of 5% or less (almost no effect))
herbicidal effect, H (Echinochloa crus-galli var. crus-galli) ([14]; 320 g/ha): 0 (Herbicidal ratio of 5% or less (almost no effect))
effect on crop, g (Brassica campestris L.) ([15]; 320 g/ha): 0 (Herbicidal ratio of 5% or less (almost no effect))
effect on crop, b (Zea mays) ([16]; 320 g/ha): 0 (Herbicidal ratio of 5% or less (almost no effect))
effect on crop, f (Beta vulgaris ssp. vulgaris) ([17]; 320 g/ha): 0 (Herbicidal ratio of 5% or less (almost no effect))
effect on crop, e (Triticum aestivum) ([18]; 320 g/ha): 0 (Herbicidal ratio of 5% or less (almost no effect))
effect on crop, c (Glycine max) ([19]; 320 g/ha): 0 (Herbicidal ratio of 5% or less (almost no effect))
effect on crop, d (directly sowed Oryza sativa) ([20]; 320 g/ha): 0 (Herbicidal ratio of 5% or less (almost no effect))
D (herbicidal effect grade) [21]: 3 (Herbicidal ratio of 40% or more and less than 70%)
H (herbicidal effect grade) [22]: 0 (Herbicidal ratio of 5% or less (almost no effect))

CCN(C(=O)c1ccc(C(F)(F)F)n2c(C3(C)CC3(Cl)Cl)nnc12)c1nnc(C)o1 (centres unmarked) [1-174, 3-(2,2-Dichloro-1-methylcyclopropyl)-N-ethyl-N-(5-methyl-1,3,4-oxadiazol-2-yl)-5-(trifluoromethyl)-[1,2,4]triazolo[4,3-a]pyridine-8-carboxamide]
b (effect on crop grade) [1]: 0 (Herbicidal ratio of 5% or less (almost no effect))
R: herbicidal effect on Veronica persica [2, 23]: 3 (Herbicidal ratio of 40% or more and less than 70%)
K: herbicidal effect on Lolium multiflorum Lam. [3, 23]: 0 (Herbicidal ratio of 5% or less (almost no effect))
M: herbicidal effect on Abutilon theophrasti [4, 23]: 0 (Herbicidal ratio of 5% or less (almost no effect))
I: herbicidal effect on Avena fatua [5, 23]: 0 (Herbicidal ratio of 5% or less (almost no effect))
F: herbicidal effect on Digitaria ciliaris [6, 23]: 0 (Herbicidal ratio of 5% or less (almost no effect))
J: herbicidal effect on Alopecurus myosuroides [7, 23]: 0 (Herbicidal ratio of 5% or less (almost no effect))
O: herbicidal effect on Chenopodium album [8, 23]: 5 (Herbicidal ratio of 90% or more (almost completely withered))
G: herbicidal effect on Setaria viridis [9, 23]: 0 (Herbicidal ratio of 5% or less (almost no effect))
P: herbicidal effect on Stellaria media [10, 23]: 3 (Herbicidal ratio of 40% or more and less than 70%)
N: herbicidal effect on Amaranthus retroflexus [11, 23]: 4 (Herbicidal ratio of 70% or more and less than 90%)
L: herbicidal effect on Apera spica-venti. [12, 23]: 0 (Herbicidal ratio of 5% or less (almost no effect))
Q: herbicidal effect on Galium spurium [13, 23]: 3 (Herbicidal ratio of 40% or more and less than 70%)
H: herbicidal effect on Echinochloa crus-galli var. crus-galli [14, 23]: 0 (Herbicidal ratio of 5% or less (almost no effect))
g: effect on crop, Brassica campestris L. [15, 23]: 0 (Herbicidal ratio of 5% or less (almost no effect))
c: effect on crop, Zea mays [16, 23]: 0 (Herbicidal ratio of 5% or less (almost no effect))
f: effect on crop, Beta vulgaris ssp. vulgaris [17, 23]: 4 (Herbicidal ratio of 70% or more and less than 90%)
e: effect on crop, Triticum aestivum [18, 23]: 0 (Herbicidal ratio of 5% or less (almost no effect))
d: effect on crop, Glycine max [19, 23]: 0 (Herbicidal ratio of 5% or less (almost no effect))
b: effect on crop, directly sowed Oryza sativa [20, 23]: 0 (Herbicidal ratio of 5% or less (almost no effect))
D (herbicidal effect grade) [21]: 2 (Herbicidal ratio of 20% or more and less than 40%)
H (herbicidal effect grade) [22]: 2 (Herbicidal ratio of 20% or more and less than 40%)
